Like-named read-outs stand apart in the source and are kept apart here.
Key:
S. aureus COL = assay: MIC of compounds, S. aureus COL; format: cell-based; settings: Staphylococcus aureus; COL (MRSA)
Protocol: (§1) Compounds 14–16 were tested further for their adjuvant-like effect with a set of ten additional S. aureus isolates. Firstly, MIC values of the molecules were evaluated in two clinical MSSA isolates (MM-O058, MM-N072), seven MRSA (USA300 LAC, 5328, LG-N017, MM-O021, R45-CC45, R46-CC22, COL) and one VISA strain (Mu50). Detailed results are presented in the Supplementary section (Table S3).
(§2) Determination of MIC values, i.e., intrinsic antibacterial activity, of products and antibiotics (oxacillin, ampicillin, vancomycin, ciprofloxacin, and erythromycin) in the presence and absence of compounds tested was conducted by the use of a standard 2-fold microdilution method in cation-adjusted Mueller Hinton broth following the Clinical and Laboratory Standards Institute (CLSI) guidelines. The MIC values were detected using an Infinite M200 pro Tecan microplate reader (Tecan® France, SA-Lyon, France). MIC determinations were conducted in 96-well microtiter plates and repeated 3–4 times.
(§3) Initially, MICs of a series of imidazolone derivatives were assessed against susceptible (reference) and MDR strains of staphylococci. Next, MIC values of the aforementioned antibiotics were determined in the absence and presence of imidazolone derivatives to assess the chemosensitizing effect of these compounds. […] 5-arylideneimidazolones and 5-arylidenethiazolones, which precipitated after addition to bacterial suspension in MH II medium, were tested at the highest concentrations at which precipitation was not observed. […] Antibacterial activity of compounds and antibiotics ampicillin, vancomycin, ciprofloxacin, and erythromycin was recorded as the lowest concentration of molecules able to inhibit bacterial growth after 18 h incubation at 37 °C. […] The results are presented as activity gain (A) parameter which was calculated as ratio of MIC of a certain antibiotic (MICAnt) to its MICAnt+Comp, observed in combination with a tested compound (7, 12–16, 19, or 20; Equation (1)). […]

S. aureus MM-O058 = assay: MIC reduction assay (antibiotic adjuvant), S. aureus MM-O058; format: cell-based, Staphylococcus aureus
Source text: (§4) The adjuvant properties of compounds 14–16 in S. aureus clinical isolates were next tested in combination with oxacillin and the penicillinase-susceptible β-lactam antibiotic, ampicillin. The second β-lactam antibiotic was chosen based on its vulnerability to enzymatic hydrolysis, another important resistance mechanism in S. aureus against penicillin. Therefore, the results of the MIC reduction assay obtained on the activity of arylideneimidazolones combined with oxacillin and ampicillin, respectively, might provide further insights into the possible mechanism of action of the compounds. Complete results are presented in Supplementary (Tables S4 and S5), while condensed in Figure 6, in the case of desired activity noted. […] One possible explanation for the lack of adjuvant activity of compounds in some of the strains selected for this study might be that these strains express PBP2a only when induced by the antibiotic, while others, for which potentiating activity of compounds was observed, produce this protein in high levels straight away.
as §2
(§5) Initially, MICs of a series of imidazolone derivatives were assessed against susceptible (reference) and MDR strains of staphylococci. Next, MIC values of the aforementioned antibiotics were determined in the absence and presence of imidazolone derivatives to assess the chemosensitizing effect of these compounds. […] 5-arylideneimidazolones and 5-arylidenethiazolones, which precipitated after addition to bacterial suspension in MH II medium, were tested at the highest concentrations at which precipitation was not observed. […] Antibacterial activity of compounds and antibiotics ampicillin, vancomycin, ciprofloxacin, and erythromycin was recorded as the lowest concentration of molecules able to inhibit bacterial growth after 18 h incubation at 37 °C. The incubation of bacterial strains exposed to oxacillin paired with compounds tested was conducted at 35 °C and extended to 24 h due to frequent occurrence of heterogeneity among MRSA strains. The results are presented as activity gain (A) parameter which was calculated as ratio of MIC of a certain antibiotic (MICAnt) to its MICAnt+Comp, observed in combination with a tested compound (7, 12–16, 19, or 20; Equation (1)). (1) A=(MICAnt/MICAnt+Comp)

S. aureus R46-CC22 [1] = assay: MIC reduction assay (antibiotic adjuvant), S. aureus R46-CC22; format: cell-based, Staphylococcus aureus
Source text: as §4, §2, §5

S. aureus R46-CC22 [2] = assay: MIC of compounds, S. aureus R46-CC22; format: cell-based; settings: Staphylococcus aureus; R46-CC22 (MRSA)
Protocol: as §1, §2, §3

MRSA 19449 = assay: MIC determination (microdilution), MRSA 19449; format: cell-based, Staphylococcus aureus; settings: Staphylococcus aureus, MRSA, no precipitation
Protocol: as §2, §5

K. aerogenes CM-64 = assay: MIC reduction assay (antibiotic adjuvant), K. aerogenes CM-64; format: cell-based, Klebsiella aerogenes; settings: doxycycline, chloramphenicol, norfloxacin, erythromycin;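 further: compound at no more than one quarter of its own MIC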
Source text: (§6) A subset of compounds, namely 7, 12–16, 19, 20, was also examined for the potential to increase the effectiveness of the antibiotics chloramphenicol, erythromycin, doxycycline, and the fluoroquinolone antibiotic norfloxacin, which all are substrates for AcrAB-TolC in K. aerogenes. In addition to strain Ea-289, the adjuvant-like effect of the compounds was investigated in strain CM-64, which also overexpresses the AcrAB-TolC efflux pump, although it has no changes in porin content, and in the Ea-289 derivatives, i.e., Ea-294 and Ea-308, which are devoid of AcrAB (Table S17, Supplementary).
as §5
(§7) MIC values of 5-arylideneimidazolone derivatives were determined following CLSI recommendations as in the methods described for S. aureus (Section 3.3.1).

S. aureus ATCC 25923 = assay: MIC determination (microdilution), S. aureus ATCC 25923; format: cell-based, Staphylococcus aureus; settings: Staphylococcus aureus
Protocol: as §2, §5

[3] = tested on: K. aerogenes Ea-294, Ea-308; assay: MIC reduction assay (antibiotic adjuvant), K. aerogenes Ea-294, Ea-308; format: cell-based, Klebsiella aerogenes; settings: doxycycline, chloramphenicol, norfloxacin, erythromycin;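 further: compound at no more than one quarter of its own MIC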
Source text: as §6, §5, §7

[4] = tested on: K. aerogenes Ea-289 (overexpression of AcrAB-TolC); assay: MIC of compounds, K. aerogenes Ea-289; format: cell-based; settings: Klebsiella aerogenes
Protocol: At first, MIC values of compounds were determined (Table S15, Supplementary). Next, their abilities to reduce MICs of the AcrAB-TolC substrates doxycycline (a tetracycline-class antibiotic) and erythromycin were studied (Table S16, Supplementary). […]
as §2, §7

[5] = tested on: AcrAB-TolC efflux pump in K. aerogenes strain Ea-289; assay: Real-time efflux (RTE) assay, 1,2'-dNA extrusion; format: cell-based, Klebsiella aerogenes; settings: compound 100 µM; IE=100% total inhibition of efflux
Protocol: Compounds 7, 12–16, 19, and 20 were also assessed for their EPI property in K. aerogenes strain Ea-289 with the use of a real-time efflux (RTE) assay. Results for compounds 16 and 20 were previously described. The experiment is based on the measurement of the extrusion of a fluorescent dye from bacterial cells overproducing efflux pump transporters in the presence and absence of compounds tested. The dye used in this assay, 1,2’ –dinaphthylamine (1,2’-dNA), is a substrate for the AcrAB-TolC efflux pump, and is strongly fluorescent upon incorporation into a phospholipid bilayer, although it is almost non-fluorescent in an aqueous solution [37, 38].
A likewise strong blocking efficacy (IE = 83 %) was also noticed for compound 12, while the lowest inhibitory effect was found for compound 13 (IE = 23 %).
The inhibitory activity of 5-arylideneimidazolone derivatives towards AcrAB-TolC mediated efflux of 1,2’-dNA was detected in K. aerogenes strain Ea-289 by using a real-time fluorometric method. In a first step, bacterial cells were loaded with the environment-sensitive fluorescent membrane probe, 1,2’-dNA, in the presence of the EPI carbonyl cyanide m-chlorophenylhydrazone (CCCP) which inactivated the pump by dissipating membrane potential. Next, compounds tested were added at the concentration of 100 µM and the efflux was energizing by automated injection of glucose at a dose of 50 µM. The fluorescence intensity was measured in a microplate reader (Tecan) with an excitation wavelength of λex = 370 nm and an emission wavelength of λem = 420 nm.

[6] = ATCC25923, unstarred values of column MIC value/no precipitation, read-out: MIC value
[7] = read-out: MIC value/no precipitation
[8] = read-out: Minimal Inhibitory Concentration (MIC)

Row | SMILES | MIC (S. aureus COL) [µM] | A (activity gain) (S. aureus MM-O058; ampicillin) | A (activity gain) (S. aureus MM-O058; erythromycin) | A (activity gain) (S. aureus R46-CC22 [1]; ampicillin) | A (activity gain) (S. aureus R46-CC22 [1]; ciprofloxacin) | MIC (S. aureus R46-CC22 [2]) [µM] | MIC (MRSA 19449) [µM] | A (activity gain) (K. aerogenes CM-64) | MIC (S. aureus ATCC 25923; [6]) [µM] | A (activity gain) [3] | MIC [4, 7] [µM] | MIC [4, 8] [µM] | Inhibition efficiency (IE) towards extrusion of 1,2'-dNA [5] [%] | MIC (S. aureus ATCC 25923; ATCC25923, read-out: MIC value) [µM]
1 | NC1=N/C(=C\c2ccc(-c3ccccc3)cc2)C(=O)N1CCN1CCOCC1 [Compound 14] | ≥ 500 | 1 | 1 | 2 | 1 | ≥ 500 | 31.2 to 250 | 1 | 31.2 to 250 | 1 | > 250 | > 2000 | 57 | 
2 | NC1=N/C(=C\c2ccc(-c3ccccc3)cc2)C(=O)N1CCCN1CCOCC1 [Compound 15] | 250 | 1 | 1 | 2 | 1 | 250 | 31.2 to 250 | 1 | 31.2 to 250 | 1 | > 250 | > 2000 | 72 | 125
3 | NC1=N/C(=C\c2cccc(Oc3ccccc3)c2)C(=O)N1CCCN1CCOCC1 [Compound 16] | 250 | 1 | 1 | 1 | 1 | 250 to 500 |  |  | 31.2 to 250 |  |  | > 2000 |  | 
4 | NC1=N/C(=C\c2ccc3c(c2)Cc2ccccc2-3)C(=O)N1CCCN1CCOCC1 [Compound 19] |  |  |  |  |  |  | 31.2 to 250 | 1 | 31.2 to 250 | 1 | > 250 | > 2000 | 90 | 
